What all share (assay): NCI anticancer screen, dose series, 48 h
Assay [1] deals with IGROV-1.
Assay [2] has as its system OVCAR-8.
For assay [3], the system named is COLO 205.
The subject of assay [4] is HT-29.
Assay [5] deals with EKVX.
The test system of assay [6] is LOX IMVI.
Assay [7] concerns HOP-92.
For assay [8], the system named is OVCAR-4.
In assay [9] the test system is K562.
In assay [10] the test system is RXF 393.
Assay [11] deals with TK-10.
The subject of assay [12] is HCT-116.
For assay [13], the system named is UO-31.
Assay [14] relates to SNB-19.
Assay [15] has as its system NCI-H522.
The subject of assay [16] is HCC 2998.
Assay [17] deals with SF-268.
Assay [18] has as its system A498.
The test system of assay [19] is MDA-MB-231.

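Compound exposure: 48 hours, 5 concentrations, 96-well plates. The concentration for 50% growth inhibition is given as GI50.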 The source made the active and inactive calls. No stated cut-off is given here; in the data, active = GI50 up to about 1.1 µM and inactive = higher.

As for `CCOC(=O)C(=O)Nc1cccc(Cl)c1C`, the GI50 in assay [1], in assay [2], in assay [3], in [4], in [5] and in [6] was > 100 µM (inactive) throughout. Besides, the GI50 in assay [7], in assay [8], in assay [9], in assay [10], in [11] and in [12] was > 100 µM (inactive) in each case. The GI50 in assay [13], in assay [14], in [15], in assay [16] and in [17] was > 100 µM (inactive) in each case.
Turning to `Cn1c(=O)nc2n(-c3ccc(Cl)cc3)c3ccc(Cl)cc3nc-2c1=O`, the GI50 in assay [1] is 19.5 µM (inactive); in assay [2], 3.98 µM (inactive); in assay [4], 8.79 µM (inactive); in assay [5], 12.9 µM (inactive); in assay [6], 3.14 µM (inactive); in assay [7], 7.05 µM (inactive). In addition, the GI50 in assay [9] is 5.02 µM (inactive); in assay [10], 2.04 µM (inactive); in assay [18], 5.58 µM (inactive); in assay [11], 18.2 µM (inactive); in assay [12] it was 8.55 µM (inactive); in assay [13] it was 18 µM (inactive). Further, the GI50 in assay [14] was > 10 µM (inactive); in assay [15] it was 6.35 µM (inactive); in assay [16], 7.76 µM (inactive); in assay [17], 6.78 µM (inactive).
Consider `CCN(CC)CCn1c2c3ccccc3ccc2c2oc(=O)c3ccccc3c21`, for which the GI50 is 68.1 µM (inactive) in [1]; > 100 µM (inactive) in [2]; > 100 µM (inactive) in assay [3]; > 100 µM (inactive) in assay [4]; > 100 µM (inactive) in [5]; > 100 µM (inactive) in assay [6]. The GI50 was 83.6 µM (inactive) in [7]; 28.1 µM (inactive) in assay [8]; > 100 µM (inactive) in assay [9]; > 100 µM (inactive) in assay [11]; 88.5 µM (inactive) in [12]; > 100 µM (inactive) in assay [13]. Also, the GI50 was 80 µM (inactive) in assay [14], > 100 µM (inactive) in [15] and 82.2 µM (inactive) in [17].
For `CN(C)c1ncnc2c1ncn2C1C=CC(COS(N)(=O)=O)C1` (centres undefined), the GI50 was > 100 µM (inactive) in assay [1]; 83.6 µM (inactive) in assay [2]; > 100 µM (inactive) in assay [3]; > 100 µM (inactive) in assay [4]; > 100 µM (inactive) in assay [5]; 96.2 µM (inactive) in assay [6]. Also, the GI50 was > 100 µM (inactive) in [7]; > 100 µM (inactive) in assay [8]; 82.4 µM (inactive) in [9]; 66.1 µM (inactive) in [10]; > 100 µM (inactive) in [18]; > 100 µM (inactive) in [12]. Besides, the GI50 was > 100 µM (inactive) in assay [13]; > 100 µM (inactive) in [14]; 47.2 µM (inactive) in [15]; > 100 µM (inactive) in assay [16]; > 100 µM (inactive) in assay [17].
Regarding `Cc1cc2c(cc1C(=O)c1ccc(N)cc1)OCO2`, the GI50 in assay [1] was 33.5 µM (inactive); in [2], > 100 µM (inactive); in [3], 16 µM (inactive); in assay [4], 22.9 µM (inactive); in assay [5] it was 31 µM (inactive); in assay [7], 33.2 µM (inactive). Further, the GI50 is 24.9 µM (inactive) in assay [9]; 34.1 µM (inactive) in assay [19]; 28.2 µM (inactive) in assay [11]; 52 µM (inactive) in assay [12]; 77.8 µM (inactive) in [13]; 57.7 µM (inactive) in assay [14]. Besides, the figures for the GI50 in assay [15] and in assay [17] were 19.1 µM (inactive) and 31.2 µM (inactive), respectively.
On to `COc1cc(COC(=O)N(CC(=O)O)c2ccccc2)c([N+](=O)[O-])cc1OC`, for which the GI50 in [1], in assay [2], in assay [3], in assay [4], in assay [5] and in assay [7] was > 100 µM (inactive) in each case. For the same compound, the GI50 was > 100 µM (inactive) in assay [9]; > 100 µM (inactive) in assay [10]; 62.7 µM (inactive) in [18]; > 100 µM (inactive) in [11]; > 100 µM (inactive) in [13]; > 100 µM (inactive) in [14]. Also, the GI50 in assay [16] and in [17] was > 100 µM (inactive) throughout.
For the compound `CC(C(O)c1ccccc1)N(C)/N=N/c1nc2c([nH]1)c(=O)n(C)c(=O)n2C` (centres undefined), the GI50 in assay [1] is 35.2 µM (inactive); in assay [2], > 100 µM (inactive); in assay [3], 41.4 µM (inactive); in [4], 39.6 µM (inactive); in assay [5] it was 88.1 µM (inactive); in assay [8], > 100 µM (inactive). Further, the GI50 in assay [9] was 91 µM (inactive); in assay [10], 42.9 µM (inactive); in [19], 92.3 µM (inactive); in assay [11], 64.1 µM (inactive); in [12], > 100 µM (inactive); in [13], > 100 µM (inactive). Further, the GI50 in assay [14] was > 100 µM (inactive); in [16], 39.9 µM (inactive); in assay [17], > 100 µM (inactive).
Regarding `O=C(Nc1ccc(C(F)(F)F)cc1[N+](=O)[O-])C(=O)C(C(=O)c1ccc2ccccc2c1)C1OC(=O)c2ccccc21` (centres undefined), the GI50 was 19.5 µM (inactive) in assay [1]; 5.07 µM (inactive) in [2]; 8.75 µM (inactive) in assay [3]; 9.08 µM (inactive) in assay [4]; 3.32 µM (inactive) in assay [5]; 6.38 µM (inactive) in [6]. Moreover, the GI50 in [7] was 0.34 µM (active); in assay [8] it was 20.6 µM (inactive); in assay [9], 5.57 µM (inactive); in [10] it was 2.94 µM (inactive); in assay [18] it was 4.09 µM (inactive); in [11], 18.5 µM (inactive). The GI50 in assay [12] was 4.36 µM (inactive); in assay [13], 13.8 µM (inactive); in assay [14], 8.51 µM (inactive); in assay [15], 7.11 µM (inactive); in [16], 5.89 µM (inactive); in assay [17], 4.16 µM (inactive).
Consider `CCOC(=O)C(C(=O)c1ccccc1)=C1NCCN1`, for which the GI50 in assay [1], in assay [2], in assay [3], in [4], in assay [5] and in [6] was > 100 µM (inactive) throughout. Besides, the GI50 in assay [8], in assay [9], in assay [10], in [12], in assay [13] and in assay [14] was > 100 µM (inactive) throughout. Moreover, the GI50 in assay [15], in assay [16] and in [17] was > 100 µM (inactive) in each case.
`Cc1ccc([S+]([O-])CC(CF)OCn2cc(C)c(=O)[nH]c2=O)cc1` (centres undefined): the GI50 in assay [1], in assay [2], in [3], in [6], in assay [7] and in [8] was > 100 µM (inactive) throughout. The GI50 in assay [19], in assay [11], in assay [12], in assay [13], in assay [14] and in assay [15] was > 100 µM (inactive) throughout. Moreover, the GI50 in [16] and in [17] was > 100 µM (inactive) throughout.
With `CN1CC=C(C#CC(C)(C)O)CC1`, the GI50 in [1], in assay [2], in [3], in assay [4], in assay [5] and in [6] was > 37.5 µM (inactive) each time. Besides, the GI50 in assay [8], in [9], in [10], in [19], in assay [11] and in [12] was > 37.5 µM (inactive) each time. For the same compound, the GI50 in assay [13], in [14], in [16] and in assay [17] was > 37.5 µM (inactive) each time.
On to `CCOC(=O)c1cc(-c2ccc(Cl)cc2)c([N+](=O)[O-])n1C`, for which the GI50 in assay [1], in assay [2], in [4], in [5], in [7] and in assay [8] was > 10 µM (inactive) throughout. Moreover, the GI50 in assay [9] is > 10 µM (inactive); in [19], 0.08 µM (active); in [11], > 10 µM (inactive); in assay [12], > 10 µM (inactive); in assay [13], 5.48 µM (inactive); in assay [14] it was > 10 µM (inactive). Besides, the GI50 in assay [15], in assay [16] and in assay [17] was > 10 µM (inactive) throughout.
For `CCN1N=CSC12C(=O)N(c1ccccc1)C(=O)N2c1ccccc1` (centres undefined), the GI50 in assay [1], in assay [2], in assay [3], in [4], in [5] and in assay [6] was > 100 µM (inactive) throughout. Besides, the GI50 in assay [7], in assay [8], in assay [9], in assay [10], in [18] and in [11] was > 100 µM (inactive) throughout. In addition, the GI50 in assay [12], in assay [13], in assay [14], in assay [15], in assay [16] and in assay [17] was > 100 µM (inactive) in each case.

(Values after ChEMBL document CHEMBL1201862, “PubChem BioAssay data set” (2004).)
